Measured values published in patent US9693560B2, “Microbicide substances” (LANXESS Deutschland GmbH, priority 2013, dated 2017).
Where a name gives a salt, the structure may show the parent alone. Read-outs that look alike come from different tables or passages of the source.

What was measured:
Format in all cases: cell-based
[1] = tested on: Escherichia coli; assay: MIC growth test (tryptone soya broth)
Protocol: (§1) The growth of bacteria and fungi upon the addition of different biocidal mixtures was tested. The concentration above which growth is no longer detected is given as the minimum inhibitory concentration (MIC). The precultivation of the bacteria which were used in the test was performed on tryptone soya agar. The precultivation of the fungi which were used in the test was performed on malt extract agar. The growth in the MIC tests was checked in tryptone soya broth (bacteria) or malt extract Bouillon (fungi). The organisms were incubated at 26° C. and a relative […] humidity of 70 to 80%. The bacteria were evaluated after 4 days, and the fungi were evaluated […] after 7 days.
(§2) The synergistic index (SI) was determined in accordance with the method described by Kull et al. (F. C. Kull et al., Applied Microbiology 9 (1961), 538-541).
(§3) The following equation applies here: SI=QA/Qa+QB/Qb

[2] = tested on: Alternaria alternata; assay: MIC growth test (malt extract Bouillon)
Protocol: as §1, §2, §3

[3] = tested on: Stachybotrys chartarum; assay: MIC growth test (malt extract Bouillon)
Protocol: as §1, §2, §3

[4] = tested on: Alcaligenes faecalis; assay: MIC growth test (tryptone soya broth)
Protocol: as §1, §2, §3

[5] = tested on: Bacillus subtilis; assay: MIC growth test (tryptone soya broth)
Protocol: as §1, §2, §3

[6] = tested on: Citrobacter freundii; assay: MIC growth test (tryptone soya broth)
Protocol: as §1, §2, §3

[7] = tested on: Corynebacterium ammoniagenes; assay: MIC growth test (tryptone soya broth)
Protocol: as §1, §2, §3

[8] = tested on: Enterobacter aerogenes; assay: MIC growth test (tryptone soya broth)
Protocol: as §1, §2, §3

[9] = tested on: Enterococcus hirae; assay: MIC growth test (tryptone soya broth)
Protocol: as §1, §2, §3

[10] = tested on: Proteus hauseri; assay: MIC growth test (tryptone soya broth)
Protocol: as §1, §2, §3

[11] = tested on: Pseudomonas aeruginosa; assay: MIC growth test (tryptone soya broth)
Protocol: as §1, §2, §3

[12] = tested on: Pseudomonas stutzeri; assay: MIC growth test (tryptone soya broth)
Protocol: as §1, §2, §3

[13] = tested on: Staphylococcus aureus; assay: MIC growth test (tryptone soya broth)
Protocol: as §1, §2, §3

[14] = tested on: Candida albicans; assay: MIC growth test (malt extract Bouillon)
Protocol: as §1, §2, §3

[15] = tested on: Salmonella enterica; assay: MIC growth test (tryptone soya broth); conditions: Example 3, Table 11
Protocol: as §1, §2, §3

[16] = tested on: Geotrichum candidum; assay: MIC growth test (malt extract Bouillon)
Protocol: as §1, §2, §3

[17] = tested on: Paecilomyces formosus; assay: MIC growth test (malt extract Bouillon)
Protocol: as §1, §2, §3

[18] = tested on: Penicillium pinophilum; assay: MIC growth test (malt extract Bouillon); conditions: Talaromyces pinophilus
Protocol: as §1, §2, §3

`Cn1sccc1=O` [MIT, 2-methyl-4-isothiazolin-3-one] was tested, and the MIC [1] was 25 µg/mL, the MIC [2] was 100 µg/mL and the MIC ([3]; Example 4, Table 23) was 250 µg/mL.

`O=c1[nH]sc2ccccc12` [BIT, 1,2-benzisothiazolin-3-one] showed an MIC ([4]; Example 3, Table 11) of 2.5 ppm, an MIC ([5]; Example 3, Table 11) of 5 ppm and an MIC ([6]; Example 3, Table 11) of 10 ppm. For the same compound, the MIC ([7]; Example 3, Table 11) was 37.5 ppm, the MIC ([8]; Enterobacter aerogenes, Example 3, Table 11) was 25 ppm and the MIC ([9]; Example 3, Table 11) was 10 ppm. It also gave an MIC ([10]; Example 3, Table 11) of 7.5 ppm, an MIC ([11]; Example 3, Table 11) of 50 ppm and an MIC ([12]; Pseudomonas stutzeri, Example 3, Table 11) of 10 ppm. The MIC ([13]; Example 3, Table 14) was 5 ppm and the MIC ([14]; Example 3, Table 17) was 25 ppm.

With `CCCCCCCCCCCCNC(=N)N` [DGH, dodecylguanidine hydrochloride] the MIC [4] was 10 µg/mL, the MIC ([4]; Example 3, Table 11) was 10 ppm and the MIC ([5]; Example 2, Table 7) was 2.5 µg/mL. The MIC ([5]; Example 3, Table 11) was 3.75 µg/mL, the MIC [6] was 5 µg/mL and the MIC ([6]; Example 3, Table 11) was 5 ppm. It also gave an MIC [7] of 2.5 µg/mL, an MIC ([8]; Klebsiella aerogenes) of 10 µg/mL and an MIC [9] of 2.5 µg/mL. For the same compound, the MIC [1] was 5 µg/mL, the MIC [10] was 10 µg/mL and the MIC [11] was 25 µg/mL. It also gave an MIC ([12]; Stutzerimonas stutzeri) of 5 µg/mL, an MIC [15] of 10 µg/mL and an MIC [13] of 1 µg/mL. It also gave an MIC ([13]; Example 3, Table 14) of 1 ppm, an MIC [2] of 10 µg/mL and an MIC [14] of 25 µg/mL. For the same compound, the MIC [16] was 10 µg/mL, the MIC [17] was 5 µg/mL and the MIC [18] was 7.5 µg/mL. The MIC ([3]; Example 2, Table 10) was 7.5 µg/mL and the MIC ([3]; Example 4, Table 23) was 10 µg/mL.
